Values joined by “and” are separate entries in the source; they are usually repeats but may differ in a detail not shown here. Identical values can stand only once.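 Exposure lasted 48 hours, with cells grown in 96-well plates and compounds tested at five concentrations. Abbreviation: GI50, concentration required for 50% inhibition of growth. Definition used: TGI = concentration required for complete inhibition of growth.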
Key:
Assay in all cases: growth of human tumour cells (NCI), 48 h
[1] = tested on: SF-295 CNS
[2] = tested on: HCT-15 colon
[3] = tested on: OVCAR-5 ovarian
[4] = tested on: ACHN renal
[5] = tested on: SNB-75 CNS
[6] = tested on: SK-MEL-28 melanoma
[7] = tested on: UACC-62 melanoma
[8] = tested on: SW-620 colon

Structure (SMILES)	GI50 [1] [µM]	TGI [1] [µM]	GI50 [2] [µM]	TGI [2] [µM]	GI50 [3] [µM]	TGI [3] [µM]	GI50 [4] [µM]	TGI [4] [µM]	GI50 [5] [µM]	TGI [5] [µM]	GI50 [6] [µM]	TGI [6] [µM]	GI50 [7] [µM]	TGI [7] [µM]	GI50 [8] [µM]	TGI [8]
CNCCN(C)Cc1cn[nH]c1-c1ccc(OC2CC(OCCC3CCOCC3)C2)cc1 (centres undefined)	49.9	> 100	> 100	> 100	> 100	> 100	64.6	> 100	38.2	> 100	> 67.9	> 100	39.1	> 100	> 100	> 100 µM
O=c1c2cc(O)c(O)cc2oc2cc(O)c(C3OC(CO)C(O)C(O)C3O)c(O)c12 (centres undefined)		> 100		> 100		> 100		> 100		> 100		> 100		> 100		> 100 µM
O=C(CSc1ncc(-c2ccccc2)n1-c1ccccc1)Nc1ccc(-c2nc3ccccc3s2)cc1	3.53	> 100	> 100	> 100	> 100	> 100	14.5	> 100	11.1	29.6			22.6	> 100		
CCCc1n(Cc2ccc3ccccc3n2)cc[n+]1Cc1ccc2ccccc2n1	3.57	15.7	37.9	> 100	3.72	34.2	33.4	> 100	1.46	8.7	1.52	15.8	1.12	6.19	3.63	25 µM
C#Cc1ccc(-n2c(/C=C/c3ccc4ccccc4c3)nc3ncccc3c2=O)cc1			2.91	> 100	6.88	> 100	2.57	> 100	2.95	> 100	4.33	> 100	2.49	> 100		
COc1cc2c(cc1O)C1CC(CC3CCCCN31)OC(=O)/C=C\c1ccc(O)c-2c1 (centres undefined)		29.1		> 100		> 100		> 100		34.2		85.2		45.2		> 100 µM
CCCCCCSc1nc(COC(=O)NC)c(COC(=O)NC)n1C		> 100		> 100		> 100		> 100		> 100		> 100		> 100		> 100 µM
CCN(CCO)CCCOc1ccc2c(Nc3cc(CC(=O)Nc4cccc(F)c4)[nH]n3)ncnc2c1		> 100	> 100	> 100	42.3	> 100	> 100	> 100			16.4	31.4	26.1	> 59.3	7.23	29.8 µM and > 4.11 µM
COc1ccc(/C=C2/CN(CCC#N)C/C(=C\c3ccc(OC)cc3)C2=O)cc1			2.51	21.8	3.33	24.9	2.06	4.48			1.99	4.3	1.66	3.81	2.15	6.72 µM
COC(=O)C1(C)CCCC2(C)c3cc(OC)ccc3C(=O)C(Br)C12 (centres undefined)		> 10		> 10		> 10						> 10		> 10		4.39 µM
Cc1cn2c(/C=C3/C(=O)Nc4ccc(Cl)cc43)c(C)nc2s1	0.871	2.65	< 0.0403	> 92.8	1.91	> 43.4	0.185	48.4	16.3	29.8	17	> 54.7	0.0411	54.7	0.22	> 67.7 µM
Cc1[nH]n(-c2cccc(Cl)c2)c(=O)c1/C=C1\C=c2ccccc2=CC1=O	23.2	> 100	> 100	> 100	> 100	> 100	17	> 100	0.927	32.7			39.8	> 100	> 100	> 100 µM
CC[C@@]1(O)C(=O)NCc2c1cc1n(c2=O)Cc2cc3c(NC(C)=O)cccc3nc2-1	> 100	> 100	> 100	> 100	> 100	> 100	> 100	> 100	> 100	> 100	> 100	> 100	> 100	> 100	> 86.6	> 100 µM
Cn1cc(C2=C(c3c(S(C)=O)n(C)c4ccccc34)C(=O)NC2=O)c2ccccc21 (centres undefined)	5.93	> 17.2	7.38	> 25	> 25	> 25	8.83	> 25	5.8	22.3	19.1	> 25	14.2	> 25	7.78	> 25 µM
COC(=O)[C@]12CC[C@@H](C)[C@H](C)[C@@H]1C1=CC[C@@H]3[C@@]4(C)CC(=O)[C@H](O)[C@@](C)(CO)[C@@H]4C(=O)C[C@@]3(C)[C@]1(C)CC2	10.6	23.3	9.37	23.3	20.8	37.6	12.9	28.3	12.7	27.1	14.6	31.9	3.25	20.8	15.1	30.6 µM
O=C(Nc1ccccc1)Nc1ccc(Cl)c(Cl)c1	2.89	21.5	3.22	> 100	8.85	> 100	3.59	97.1	5.35	> 100	4.55	> 100	2.66	> 100	3.58	> 100 µM
O=C(/C=C/c1ccccc1)OCC1=C[C@@H](O)[C@@H]2C=CO[C@@H](OC3OC(CO)C(O)C(O)C3O)[C@H]12 (some centres undefined)		> 100		> 100		> 100		> 100		> 100		> 100		> 100		> 100 µM
COc1cc(NC(=O)c2ccccc2Nc2ccnc(C(F)(F)F)c2)cc(OC)c1OC	41.9	> 100	56.1	> 100	> 100	> 100	99.9	> 100	34.8	> 100	> 100	> 100	36.8	> 100	> 100	> 100 µM

From PubChem BioAssay (NCI)
